Data from article PMC9564337, “Development of a Neurotensin-Derived ^68Ga-Labeled PET Ligand with High In Vivo Stability for Imaging of NTS1 Receptor-Expressing Tumors” (Cancers, 2022).
Where two headings read alike, the source gives them in different places.

Assays:
hNTS1R = target: T1, hNTS1R (Homo sapiens, UniProt P30989); assay: radioligand competition binding with [3H]UR-MK300 at intact HT-29 cells
T1 construct: intact HT-29 colon carcinoma cells expressing the hNTS1R; host or cells: HT-29 human colon carcinoma cells
Description: Specific binding data (obtained by subtracting unspecific binding from total binding) were normalized (100% = specifically bound radioligand in the absence of competitor) and plotted over log(concentration of competitor) followed by a four-parameter logistic fit (SigmaPlot 12.5, Systat Software, San José, CA, USA) (note: in the case of 40, the lower curve plateau of the sigmoidal fit was constrained to >0). […] The Ki values from individual experiments were transformed to pKi values, followed by the calculation of mean pKi values ± SD.

in vitro = in vitro ADME; settings: human; for remaining at 1 h, 100 µM: pH 7.4, % Intact Peptide in Plasma after 1 h; for remaining at 6 h, 100 µM: pH 7.4, % Intact Peptide in Plasma after 6 h; for remaining at 24 h, 100 µM: pH 7.4, % Intact Peptide in Plasma after 24 h; for remaining at 48 h, 100 µM: pH 7.4, % Intact Peptide in Plasma after 48 h
Description: The concentration of the peptides in plasma/PBS (1:2 v/v) was 80 and 4 μM (recovery determination) or 100 μM (stability tests). Data analysis was based on UV detection at 220 nm (8, 9, 11, 12, 14-18, 21-23, 38-49, and 54-57) or fluorescence detection at 275/305 nm (19 and 20). Reference samples, representing 100% recovery, were prepared in duplicate (8, 9, 11, 14-16, and 19-21) or quadruplicate (12, 17, 18, 22, 23, 38-49, and 54-57). Recovery ratios were obtained by dividing the recovery of the peptide by the recovery of IS for each individual sample (n = 3-5). The obtained recoveries and the recovery ratios are summarized in Table S2, Supplementary Materials. […] Instead, the recovery ratios determined for the previously reported, structurally closely related peptide […] [40] were used for calculating the amount of remaining intact peptide in plasma.

[1] = [3H]UR-MK300 c = 1 nM, HT-29 cells, 23 °C, read-out: Ki [nM] NTS1R (converted)
[2] = [3H]UR-MK300 c = 1 nM, HT-29 cells, 23 °C, read-out: pKi ± SD NTS1R (converted)

T1 sequence (P30989 whole entry): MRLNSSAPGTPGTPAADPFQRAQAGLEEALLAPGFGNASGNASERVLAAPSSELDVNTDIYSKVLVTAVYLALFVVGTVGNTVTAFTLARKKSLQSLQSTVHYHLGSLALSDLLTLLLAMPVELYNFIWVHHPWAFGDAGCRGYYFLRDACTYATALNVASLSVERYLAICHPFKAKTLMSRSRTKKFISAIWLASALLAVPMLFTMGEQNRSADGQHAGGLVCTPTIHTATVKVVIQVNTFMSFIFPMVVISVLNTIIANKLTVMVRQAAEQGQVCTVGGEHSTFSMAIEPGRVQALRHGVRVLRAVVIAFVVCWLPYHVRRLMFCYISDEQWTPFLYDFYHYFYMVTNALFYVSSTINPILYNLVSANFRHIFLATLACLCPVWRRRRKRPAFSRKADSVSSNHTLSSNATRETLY

Ki (hNTS1R; [1]) [nM] | Ki (hNTS1R; [2]) [nM] | remaining at 1 h, 100 µM (in vitro; plasma) [%] | remaining at 6 h, 100 µM (in vitro; plasma) [%] | remaining at 24 h, 100 µM (in vitro; plasma) [%] | remaining at 48 h, 100 µM (in vitro; plasma) [%] | Compound | other results
12 | 10.7 |  |  |  |  | CN[C@@H](CCCNC(N)=NC(=O)NCCOCCOCCNC(=O)[C@@H](Cc1ccc(-c2ccc(F)cc2)cc1)NC(=O)CCCCCNC(=O)CN1CCN(CC(=O)O)CCN(CC(=O)O)CCN(CC(=O)O)CC1)C(=O)N[C@@H](CCCNC(=N)N)C(=O)N1CCC[C@H]1C(=O)N[C@@H](Cc1ccc(O)cc1)C(=O)N[C@H](C(=O)N[C@@H](CC(C)C)C(=O)O)C(C)(C)C [Compound 32] | 
 |  |  |  |  |  | CN[C@@H](CCCNC(N)=NC(=O)NCCOCCOCCNC(=O)[C@@H](Cc1ccc(-c2ccc(F)cc2)cc1)NC(=O)CCCCCNC(=O)CN1CCN(CC(=O)O)CCN(CC(=O)O)CCN(CC(=O)O)CC1)C(=O)N[C@@H](CCCNC(=N)N)C(=O)N1CCC[C@H]1C(=O)N[C@@H](Cc1ccc(O)cc1)C(=O)N[C@H](C(=O)N[C@@H](CC(C)C)C(=O)O)C(C)(C)C [Compound 33] | increase in NTS1R affinity upon insertion of Ga3+ (hNTS1R; versus the precursor with empty DOTA chelator (32 or 54)): 4.8 fold
5 |  | 92 ± 1 | 74 ± 1 | 15 ± 1 | < 1 | CN[C@@H](CCCNC(=N)N)C(=O)N[C@@H](CCCNC(=N)N)C(=O)N1CCC[C@H]1C(=O)N[C@@H](Cc1ccc(O)cc1)C(=O)N[C@@H](CC1CC1)C(=O)N[C@@H](CC(C)C)C(=O)O [Compound 41] | 
 |  | 90 ± 4 | 97 ± 6 | 92 ± 1 | 92 ± 1 | CC[C@H](C)[C@H](NC(=O)[C@@H](NC(=O)[C@@H]1CCCN1C(=O)[C@H](CCCNC(=N)N)NC(=O)[C@H](CCCNC(=N)N)NC)C(C)(C)c1ccc(O)cc1)C(=O)N[C@@H](CC(C)C)C(=O)O [Compound 48] | 
1.1 | 1.05 | 91 ± 1 | 79 ± 1 | 32 ± 1 | < 1 | CN[C@@H](CCCNC(=N)N)C(=O)N[C@@H](CCCNC(=N)N)C(=O)N1CCC[C@H]1C(=O)N[C@@H](Cc1ccc(O)cc1)C(=O)N[C@H](C(=O)N[C@@H](CC(C)C)C(=O)O)C1CCC1 [Compound 42] | 
9.6 | 8.91 | 88 ± 1 | 58 ± 1 | < 1 | < 1 | CN[C@@H](CCCNC(=N)N)C(=O)N[C@@H](CCCNC(=N)N)C(=O)N1CCC[C@H]1C(=O)N[C@@H](Cc1ccc(O)cc1)C(=O)N[C@H](C(=O)N[C@@H](CC(C)C)C(=O)O)C1CC1 [Compound 40] | 
36 |  |  | 99 ± 1 |  |  | CN[C@@H](CCCNC(=N)NC(=O)NCCOCCOCCNC(=O)CN1CCN(CC(=O)O)CCN(CC(=O)O)CCN(CC(=O)O)CC1)C(=O)N[C@@H](CCCNC(=N)N)C(=O)N1CCC[C@H]1C(=O)N[C@@H](Cc1ccc(O)cc1)C(=O)N[C@H](C(=O)N[C@@H](CC(C)C)C(=O)O)C(C)(C)C [Compound 18] | % Intact Peptide in Plasma after 24 h (in vitro; 24 h, 100 µM, pH 7.4): 94 ± 1%; % Intact Peptide in Plasma after 48 h (in vitro; 48 h, 100 µM, pH 7.4): 86 ± 1%
4.3 | 4.27 |  |  |  |  | CN[C@@H](CCCNC(N)=NC(=O)NCCCCNC(=O)[C@H](N)Cc1ccc(-c2ccc(F)cc2)cc1)C(=O)N[C@@H](CCCNC(=N)N)C(=O)N1CCC[C@H]1C(=O)N[C@@H](Cc1ccc(O)cc1)C(=O)N[C@H](C(=O)N[C@@H](CC(C)C)C(=O)O)C(C)(C)C [Compound 25] | 
> 1000 | > 1000 | 93 ± 1 | 92 ± 1 | 86 ± 1 | 77 ± 1 | CC[C@](C)(NC(=O)[C@H](Cc1ccc(O)cc1)NC(=O)[C@@H]1CCCN1C(=O)[C@H](CCCNC(=N)N)NC(=O)[C@H](CCCNC(=N)N)NC)C(=O)N[C@@H](CC(C)C)C(=O)O [Compound 45] | 
2.7 | 2.45 | 97 ± 3 | 97 ± 3 | 94 ± 3 | 91 ± 3 | CN[C@@H](CCCNC(=N)NC(=O)NCCOCCOCCN)C(=O)N[C@@H](CCCNC(=N)N)C(=O)N1CCC[C@H]1C(=O)N[C@@H](Cc1ccc(O)cc1)C(=O)N[C@H](C(=O)N[C@@H](CC(C)C)C(=O)O)C(C)(C)C [Compound 12] | 
21 |  | > 99 | > 99 | 68 ± 1 | < 1 | CN[C@@H](CCCNC(N)=NC(=O)NCCCCNC(=O)CN1CCN(CC(=O)O)CCN(CC(=O)O)CCN(CC(=O)O)CC1)C(=O)N[C@@H](CCCNC(=N)N)C(=O)N1CCC[C@H]1C(=O)N[C@H](C(=O)N[C@H](C(=O)N[C@@H](CC(C)C)C(=O)O)C(C)(C)C)C(C)(C)c1ccc(O)cc1 [Compound 57] | lower NTS1R affinity compared to 56 (hNTS1R; 57 versus 56): 18 fold; pKi ± SD NTS1R (hNTS1R; [3H]UR-MK300 c = 1 nM, HT-29 cells, 23 °C): 7.67 ± 0.04
3.1 | 3.02 |  |  |  |  | CN[C@@H](CCCNC(N)=NC(=O)NCCOCCOCCNC(=O)[C@H](N)Cc1ccc(-c2ccc(F)cc2)cc1)C(=O)N[C@@H](CCCNC(=N)N)C(=O)N1CCC[C@H]1C(=O)N[C@@H](Cc1ccc(O)cc1)C(=O)N[C@H](C(=O)N[C@@H](CC(C)C)C(=O)O)C(C)(C)C [Compound 26] | 
 |  | > 99 | > 99 | 77 ± 1 | < 1 | CC[C@H](C)[C@H](NC(=O)[C@@H](NC(=O)[C@@H]1CCCN1C(=O)[C@H](CCCNC(=N)N)NC(=O)[C@H](CCCNC(N)=NC(=O)NCCCCNC(=O)CN1CCN(CC(=O)O)CCN(CC(=O)O)CCN(CC(=O)O)CC1)NC)C(C)(C)c1ccc(O)cc1)C(=O)N[C@@H](CC(C)C)C(=O)O [Compound 56] | half-life at 100 µM (in vitro; plasma): > 24 h
85 | 79.4 |  |  |  |  | CN[C@@H](CCCNC(=N)NC(=O)NCCCCNC(=O)CN1CCN(CC(=O)O)CCN(CC(=O)O)CCN(CC(=O)O)CC1)C(=O)N[C@@H](CCCNC(=N)N)C(=O)N1CCC[C@H]1C(=O)N[C@H](C(=O)N[C@H](C(=O)N[C@@H](CC(C)C)C(=O)O)C(C)(C)C)C(C)(C)c1ccc(O)cc1 [Compound 55] | 
 |  |  |  |  |  | CC[C@H](C)[C@H](NC(=O)[C@H](Cc1ccc(O)cc1)NC(=O)[C@@H]1CCCN1C(=O)[C@H](CCCNC(=N)NC(=O)NCCCCNC(=O)CN1CCN(CC(=O)O)CCN(CC(=O)O)CCN(CC(=O)O)CC1)NC(=O)[C@H](CCCNC(=N)N)NC)C(=O)N[C@@H](CC(C)C)C(=O)O [Compound 15] | % Intact Peptide in Plasma after 1 h (in vitro; 100 µM, pH 7.4): 78 ± 1%; % Intact Peptide in Plasma after 6 h (in vitro; 100 µM, pH 7.4): 8.3 ± 0.4%
 |  | 89 ± 1 | 88 ± 1 | 81 ± 1 | 73 ± 1 | CC[C@H](C)[C@H](NC(=O)[C@H](Cc1ccc(O)cc1)NC(=O)[C@@H]1CCCN1C(=O)[C@H](CCCNC(=N)N)NC(=O)[C@H](CCCNC(=N)N)NC)C(=O)N[C@@](C)(CC(C)C)C(=O)O [Compound 47] | 
 |  | 96 ± 2 | 96 ± 1 | 94 ± 5 | 95 ± 2 | CC[C@H](C)[C@H](NC(=O)[C@H](NC(=O)[C@@H]1CCCN1C(=O)[C@H](CCCNC(=N)N)NC(=O)[C@H](CCCNC(=N)N)NC)C(C)(C)c1ccc(O)cc1)C(=O)N[C@@H](CC(C)C)C(=O)O [Compound 49] | 
10 | 10.2 |  |  |  |  | CN[C@@H](CCCNC(N)=NC(=O)NCCCCNC(=O)[C@@H](Cc1ccc(-c2ccc(F)cc2)cc1)NC(=O)CN1CCN(CC(=O)O)CCN(CC(=O)O)CCN(CC(=O)O)CC1)C(=O)N[C@@H](CCCNC(=N)N)C(=O)N1CCC[C@H]1C(=O)N[C@@H](Cc1ccc(O)cc1)C(=O)N[C@H](C(=O)N[C@@H](CC(C)C)C(=O)O)C(C)(C)C [Compound 34] | 
14 | 13.5 |  |  |  |  | CN[C@@H](CCCNC(N)=NC(=O)NCCOCCOCCNC(=O)[C@@H](Cc1ccc(-c2ccc(F)cc2)cc1)NC(=O)CN1CCN(CC(=O)O)CCN(CC(=O)O)CCN(CC(=O)O)CC1)C(=O)N[C@@H](CCCNC(=N)N)C(=O)N1CCC[C@H]1C(=O)N[C@@H](Cc1ccc(O)cc1)C(=O)N[C@H](C(=O)N[C@@H](CC(C)C)C(=O)O)C(C)(C)C [Compound 35] | 
 |  | 99 ± 2 | 57 ± 2 | 3 ± 0.1 | 1.4 ± 0.3 | CC[C@H](C)[C@H](NC(=O)[C@H](Cc1ccc(O)cc1)NC(=O)[C@@H]1CCCN1C(=O)[C@H](CCCNC(=N)NC(=O)NCCCCN)NC(=O)[C@H](CCCNC(=N)N)NC)C(=O)N[C@@H](CC(C)C)C(=O)O [Compound 9] | 
 |  |  |  | 15 ± 1 | 4.6 ± 0.1 | CC[C@H](C)[C@H](NC(=O)[C@H](Cc1ccc(O)cc1)NC(=O)[C@@H]1CCCN1C(=O)[C@H](CCCNC(=N)NC(=O)NCCCCNC(=O)CN1CCN(CC(=O)O)CCN(CC(=O)O)CCN(CC(=O)O)CC1)NC(=O)[C@H](CCCNC(=N)N)NC)C(=O)N[C@@H](CC(C)C)C(=O)O [Compound 20] | % Intact Peptide in Plasma after 1 h (in vitro; 100 µM, pH 7.4): >99%; % Intact Peptide in Plasma after 6 h (in vitro; 100 µM, pH 7.4): 77 ± 2%
